PubChem BioAssay (NCI)
Several values for one entry are separate records, joined by “and”; a condition that tells them apart may be missing. Equal values may be shown once.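 1) Cells in 96-well plates. 2) Compound, 48 h, 5 concentrations. 3) Linear interpolation between surrounding doses. 4) Unreached endpoint = highest concentration. Here, GI50 denotes the concentration required for 50% inhibition of growth. The concentration for full growth arrest is given as TGI.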

How the values were obtained:
Test in all cases: NCI tumour cell line growth inhibition, 48 h
[1] = test system: UACC-62 melanoma
[2] = test system: SNB-19 CNS
[3] = test system: SK-MEL-28 melanoma
[4] = test system: RXF 393 renal
[5] = test system: EKVX NSCLC
[6] = test system: OVCAR-5 ovarian
[7] = test system: NCI-H226 lung
[8] = test system: KM12 colon
[9] = test system: M14 melanoma
[10] = test system: RPMI-8226 leukemia
[11] = test system: LOX IMVI melanoma
[12] = test system: HCC-2998 colon
[13] = test system: NCI-H460 lung
[14] = test system: SF-539 CNS
[15] = test system: SK-OV-3 ovarian
[16] = test system: HS 578T breast
[17] = test system: HCT-116 colon
[18] = test system: MALME-3M melanoma
[19] = test system: HL-60(TB) leukemia
[20] = test system: IGROV1 ovarian
[21] = test system: MOLT-4 leukemia
[22] = test system: HOP-92 NSCLC
[23] = test system: CCRF-CEM leukemia
[24] = test system: NCI-H522 lung
[25] = test system: SF-268 CNS
[26] = test system: UACC-257 melanoma
[27] = test system: BT-549 breast
[28] = test system: NCI-H23 lung
[29] = test system: SF-295 CNS
[30] = test system: OVCAR-4 ovarian

Question: Which results are given for `CCN(CC)CCCNc1[nH]ncc2c(C)c3nc4ccccc4c3cc12`?
Answer: TGI [1]: 1960 nM and 2080 nM; GI50 [2]: 857 nM; TGI [2]: 5960 nM and 4790 nM; GI50 [3]: 2830 nM; TGI [3]: 13900 nM and 4060 nM; GI50 [4]: 878 nM; TGI [4]: 2250 nM and 5780 nM; GI50 [5]: 887 nM; TGI [5]: 3440 nM and 8380 nM; GI50 [6]: 774 nM; TGI [6]: 6810 nM and 16600 nM; GI50 [7]: 566 nM; TGI [7]: 2500 nM and 2090 nM; GI50 [8]: 355 nM; TGI [8]: 1470 nM and 6750 nM; GI50 [9]: 1160 nM; TGI [9]: 2440 nM and 6410 nM; GI50 [10]: 1510 nM and 990 nM; TGI [10]: 4920 nM and 5620 nM; GI50 [11]: 328 nM; TGI [11]: 1580 nM and 1180 nM; GI50 [12]: 375 nM; TGI [12]: 2120 nM and 3060 nM; GI50 [13]: 220 nM; TGI [13]: 1360 nM and 2690 nM; GI50 [14]: 373 nM; TGI [14]: 1810 nM and 6090 nM; GI50 [15]: 1310 nM; TGI [15]: 2750 nM and 12600 nM; GI50 [16]: 449 nM; TGI [16]: 2130 nM and 6380 nM; GI50 [17]: 412 nM and 421 nM; TGI [17]: 2320 nM and 3310 nM; GI50 [18]: 918 nM; TGI [18]: 2340 nM and 3810 nM; TGI [19]: 1890 nM; GI50 [20]: 1080 nM; TGI [20]: 8160 nM and 6880 nM; GI50 [21]: 28.8 nM; TGI [21]: 183 nM and 44.7 nM; GI50 [22]: 613 nM; TGI [22]: 3630 nM and 5800 nM; GI50 [23]: 132 nM; GI50 [24]: 217 nM; TGI [24]: 1150 nM and 1140 nM; GI50 [25]: 493 nM and 1090 nM; TGI [25]: 3160 nM and 7670 nM; GI50 [26]: 1400 nM; TGI [26]: 7050 nM and 6140 nM; GI50 [27]: 2080 nM; TGI [27]: 2750 nM and 5170 nM; GI50 [28]: 583 nM; TGI [28]: 1990 nM and 3720 nM; GI50 [29]: 1300 nM; TGI [29]: 5270 nM and 11800 nM; GI50 [30]: 397 nM
